According to patent publication US20220372024A1, “CRYSTALLINE FORMS OF ENTRECTINIB” (Johnson Matthey Public Limited Company, priority 2019, published 2022):
Read-outs that look alike come from different tables or passages of the source.

How the values were obtained:
Assay type in all cases: physicochemical
[1] = Four hour solubility in buffered media (HPLC quantitation); details: for Solubility after 4 hours: 25° C.; for solubility at 4 h: 25 °C, thermodynamic from solid, read-out: Solubility after 4 hours
Procedure: Sufficient sample was suspended in 1.0 ml media for a maximum anticipated concentration of ca. 10 mg/ml of the free form of the compound. The resulting suspensions were then shaken at 25° C./750 rpm for 4 hours. The pH of the sample solutions was checked after 1 hour and adjusted as necessary with 0.2 M NaOH to ensure that the desired pH was maintained throughout (±0.2). After equilibration, the appearance was noted, and the final pH of the saturated solution was measured. Samples were then filtered through a glass C′ fibre filter (Particle retention size 1.2 μm). Samples suspended in pH 1.2 buffer were diluted 10 times with pH 1.2 buffer, all other samples were analysed undiluted. Quantitation was by HPLC with reference to a standard solution of approximately 0.15 mg/ml. Different volumes of the standard, diluted and undiluted sample solutions were injected. The solubility was calculated using the peak areas determined by integration of the peak found at the same retention time as the principal peak in the standard injection. [table] [table]

[2] = Gravimetric vapour sorption (GVS), XRPD after analysis; details: 25° C., 0-90% RH
Excerpt: Hygroscopicity of a solid material may be determined by means of gravimetric vapour sorption (GVS) analysis, sometimes known by dynamic vapour sorption (DVS) analysis. The experiment subjects a sample material which is held in a fine wire basket on a microbalance within a temperature and humidity controlled environment (chamber). Using the software, the collected data can then be processed to determine the isotherm points at the increment ranges specified during the experiment and show the overall water uptake of the material. Sorption isotherms were obtained using a SMS DVS Intrinsic moisture sorption analyser, controlled by DVS Intrinsic Control software. The sample temperature was maintained at 25° C. by the instrument controls. The humidity was controlled by mixing streams of dry and wet nitrogen, with a total flow rate of 200 ml/min. The relative humidity was measured by a calibrated Rotronic probe (dynamic range of 1.0-100% RH), located near the sample. The weight change, (mass relaxation) of the sample as a function of % RH was constantly monitored by a microbalance (accuracy ±0.005 mg). Typically, 5-30 mg of sample was placed in a tared mesh stainless steel basket under ambient conditions. The sample was loaded and unloaded at 40% RH and 25° C. (typical room conditions). A moisture sorption isotherm was performed as outlined below (2 scans per complete cycle). The standard isotherm was performed at 25° C. at 10% RH intervals over a 0-90% RH range. Typically, a double cycle (4 scans) was carried out. Data analysis was carried out within Microsoft Excel using the DVS Analysis Suite. [table]

[3] = Storage stability of the crystalline form (XRPD diffractogram and chemical purity); details: 28 days storage at 40° C./75% RH and 25° C./97% RH
Excerpt: (§1) Entrectinib anhydrate (Form A) was also characterised as follows: • TGA and DSC analysis (see FIG. 2). • GVS isotherm analysis (see FIG. 3). • XRPD analysis pre- (bottom) and post- (top) GVS (see FIG. […] 5). The XRPD overlays illustrate that entrectinib anhydrate (Form A) is stable under the storage conditions.
Entrectinib anhydrate (Form C) was also characterised as follows: • TGA and DSC analysis (see FIG. 9). • GVS isotherm analysis (see FIG. 10). • XRPD analysis before (bottom) and after (top) the GVS experiment (see FIG. […] 12). The XRPD overlays illustrate that entrectinib anhydrate (Form C) is stable under the storage conditions (see FIG. 12).
as §1, with “monohydrate” for “anhydrate”, “G)” for “A)”, “20).” for “2).”, “21).” for “3).”, “23).” for “5).”

[4] = Intrinsic dissolution rate (IDR), Sirius inForm; details: pH 2.8, 37° C., 3 mm disc
Excerpt: Data were collected on a Sirius inForm instrument fitted with a dual UV Dip Probe attachment and Ag/AgCl combination pH electrode. The electrode was calibrated using the four plus parameters derived from a blank titration. The base titrant was standardised by titration with TRIS. 0.5 M HCl and NaOH aqueous solutions were used as the acid and base titrants respectively for the testing. Stirring was facilitated by a dual overhead stirrer to allow thorough mixing within the vessel, and media was introduced via a capillary bundle attached to a dispensing bank comprised of six precision dispensing units. A Peltier heating jacket was used to maintain the temperature of the titration vessel. Discs were introduced to the vessel via the tablet picker housed in the probe arm, after the desired temperature of the media had been reached. Sirius inForm Assay Design, Control and Refine software were used to design, run and refine data respectively. The reference sample was prepared as a 10.1 mM stock solution in DMSO. MEC data was then collected using UV metric method with initial addition of 100 μl of DMSO stock. UV Spectra were then collected from low to high pH (pH 2-12) in two titrations using a 5 mm path length. The MEC data set was then imported into the dissolution data files in order to convert the UV absorbance measured to concentration. The concentration range for UV data collected was […]. MEC data were collected in the dissolution media (36 ml of ISA water+4 ml of GI Tract buffer) and at 37° C. to match the dissolution experiments. Ca. 8-20 mg of the sample was compressed in a 3 mm disc recess, under 100 kg for 2 minutes, with greaseproof paper on the compression base, to form non-disintegrating discs. The discs were then plugged with a bung so that only one surface was exposed to the media during analysis and transferred to the Sirius inForm dissolution apparatus. […] The IDR was calculated based on the surface area of the 3 mm disc recess used (7.07 mm^2 surface area). […]

[5] = pH 1.2 hydrochloric acid buffer

| SMILES | Solubility after 4 hours [1, 5] | Solubility after 4 hours ([1]; pH 2.8 buffer) | Solubility after 4 hours ([1]; pH 4.5 acetate buffer) | Solubility after 4 hours ([1]; pH 6.8 phosphate buffer) | Solubility after 4 hours ([1]; pH 7.5 phosphate buffer) | Change in form after GVS (XRPD after analysis) [2] | Stability under the storage conditions (XRPD overlays) [3] | IDR [4] | solubility at 4 h ([1]; hydrochloric acid buffer, pH 1.2, simulated gastric fluid, pH 1.2 hydrochloric acid buffer) [µg/mL] | solubility at 4 h ([1]; pH 2.8 buffer, pH 2.8, aqueous buffer, pH 2.8 buffer) [µg/mL] |
| --- | --- | --- | --- | --- | --- | --- | --- | --- | --- | --- |
| CN1CCN(c2ccc(C(=O)Nc3n[nH]c4ccc(Cc5cc(F)cc(F)c5)cc34)c(NC3CCOCC3)c2)CC1 [Form C, N-[5-[(3,5-difluorophenyl)methyl]-1H-indazol-3-yl]-4-(4-methylpiperazin-1-yl)-2-(oxan-4-ylamino)benzamide] | pH 1.2-4.3 mg/ml | pH 2.8->5.0 mg/ml | pH 4.5-4.0 mg/ml | pH 6.8-0.0013 mg/ml | pH 7.5-0.0006 mg/ml | unchanged | stable | pH 2.8: 2.5 mg/min/cm^2 | – | – |
| CN1CCN(c2ccc(C(=O)Nc3n[nH]c4ccc(Cc5cc(F)cc(F)c5)cc34)c(NC3CCOCC3)c2)CC1 [Form A, N-[5-[(3,5-difluorophenyl)methyl]-1H-indazol-3-yl]-4-(4-methylpiperazin-1-yl)-2-(oxan-4-ylamino)benzamide] | – | – | pH 4.5->5.0 mg/ml | pH 6.8-0.0024 mg/ml | pH 7.5-0.0013 mg/ml | unchanged | stable | pH 2.8: 2.5 mg/min/cm^2 | > 5000 | > 5000 |
| CN1CCN(c2ccc(C(=O)Nc3n[nH]c4ccc(Cc5cc(F)cc(F)c5)cc34)c(NC3CCOCC3)c2)CC1 [Form G, N-[5-[(3,5-difluorophenyl)methyl]-1H-indazol-3-yl]-4-(4-methylpiperazin-1-yl)-2-(oxan-4-ylamino)benzamide] | pH 1.2->5.0 mg/ml | pH 2.8->5.0 mg/ml | pH 4.5-0.10 mg/ml | pH 6.8-0.0002 mg/ml | pH 7.5-0.0002 mg/ml | substantially unchanged | stable | pH 2.8: 1.6 mg/min/cm^2 | – | – |
